Molecular target: PIKfyve (Homo sapiens, UniProt Q9Y2I7)
Assay type: cell-based

Chain of PIKfyve (Q9Y2I7 whole entry, species assumed): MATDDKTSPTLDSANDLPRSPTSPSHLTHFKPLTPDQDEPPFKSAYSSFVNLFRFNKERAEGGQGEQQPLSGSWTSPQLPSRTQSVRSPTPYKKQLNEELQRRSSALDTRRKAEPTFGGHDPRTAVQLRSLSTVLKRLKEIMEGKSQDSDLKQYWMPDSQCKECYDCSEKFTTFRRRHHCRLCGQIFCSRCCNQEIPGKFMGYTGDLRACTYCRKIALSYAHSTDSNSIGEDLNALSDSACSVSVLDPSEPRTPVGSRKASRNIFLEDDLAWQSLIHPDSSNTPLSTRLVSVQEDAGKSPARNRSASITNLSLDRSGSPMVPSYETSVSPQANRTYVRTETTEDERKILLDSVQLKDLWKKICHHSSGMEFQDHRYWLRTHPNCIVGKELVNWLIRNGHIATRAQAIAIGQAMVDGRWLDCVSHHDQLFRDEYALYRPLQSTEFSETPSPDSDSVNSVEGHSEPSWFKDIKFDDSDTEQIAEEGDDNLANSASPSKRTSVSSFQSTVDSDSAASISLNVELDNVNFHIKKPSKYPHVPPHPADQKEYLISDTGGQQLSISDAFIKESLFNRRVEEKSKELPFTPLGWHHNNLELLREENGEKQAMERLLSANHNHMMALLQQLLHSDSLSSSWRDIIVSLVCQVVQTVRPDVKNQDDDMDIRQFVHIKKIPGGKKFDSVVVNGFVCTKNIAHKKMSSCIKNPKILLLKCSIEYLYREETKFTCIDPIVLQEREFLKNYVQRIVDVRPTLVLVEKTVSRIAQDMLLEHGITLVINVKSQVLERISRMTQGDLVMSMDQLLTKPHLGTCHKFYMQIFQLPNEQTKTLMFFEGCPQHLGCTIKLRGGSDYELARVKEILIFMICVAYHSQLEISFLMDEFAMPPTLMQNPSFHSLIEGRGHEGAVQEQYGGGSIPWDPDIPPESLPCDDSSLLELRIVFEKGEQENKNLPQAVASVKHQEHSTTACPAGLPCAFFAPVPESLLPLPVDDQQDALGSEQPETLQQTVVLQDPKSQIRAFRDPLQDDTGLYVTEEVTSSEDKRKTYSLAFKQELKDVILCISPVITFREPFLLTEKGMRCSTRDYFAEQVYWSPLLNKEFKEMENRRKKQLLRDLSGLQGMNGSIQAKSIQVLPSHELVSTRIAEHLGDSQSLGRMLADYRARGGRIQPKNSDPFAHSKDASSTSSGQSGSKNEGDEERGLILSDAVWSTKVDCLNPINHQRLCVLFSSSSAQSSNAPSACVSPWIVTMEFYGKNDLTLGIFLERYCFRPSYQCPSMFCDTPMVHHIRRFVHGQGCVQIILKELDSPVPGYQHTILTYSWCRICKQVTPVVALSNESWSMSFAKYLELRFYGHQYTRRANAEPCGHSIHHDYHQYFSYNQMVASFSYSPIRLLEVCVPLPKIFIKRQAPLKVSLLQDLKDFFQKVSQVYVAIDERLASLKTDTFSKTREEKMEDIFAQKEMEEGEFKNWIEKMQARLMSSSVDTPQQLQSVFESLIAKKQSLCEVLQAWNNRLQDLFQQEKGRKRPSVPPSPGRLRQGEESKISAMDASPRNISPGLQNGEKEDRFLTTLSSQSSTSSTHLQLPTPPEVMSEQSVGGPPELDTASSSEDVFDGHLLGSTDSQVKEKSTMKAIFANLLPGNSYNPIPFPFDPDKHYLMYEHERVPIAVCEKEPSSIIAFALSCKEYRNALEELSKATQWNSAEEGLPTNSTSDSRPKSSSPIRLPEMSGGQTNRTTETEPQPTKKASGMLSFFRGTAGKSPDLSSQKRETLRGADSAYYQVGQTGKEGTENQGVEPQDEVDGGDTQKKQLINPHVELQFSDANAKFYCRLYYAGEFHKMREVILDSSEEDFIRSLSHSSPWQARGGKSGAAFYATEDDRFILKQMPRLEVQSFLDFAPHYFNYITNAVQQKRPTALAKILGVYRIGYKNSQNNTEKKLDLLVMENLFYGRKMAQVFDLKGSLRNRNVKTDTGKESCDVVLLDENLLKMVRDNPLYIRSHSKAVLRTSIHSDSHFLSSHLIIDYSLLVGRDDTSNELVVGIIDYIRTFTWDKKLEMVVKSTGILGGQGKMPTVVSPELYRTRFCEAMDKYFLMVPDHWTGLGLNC

Cc1cccc(/C=N/Nc2cc(N3CCOCC3)nc(OCCc3ccccn3)n2)c1 [Apilimod, apilimod]
dose needed to inhibit EBOV GP-mediated infection in GFP-PIKfyve vs. GFP expressing cells: higher doses of apilimod were needed to achieve similar levels of inhibition

From publication PMC5402990 (PLoS Neglected Tropical Diseases, 2017)
